Experimental data from US11981953B2, “Method to screen compounds for antifungal activity and pharmaceutical compositions and methods to treat fungal diseases by inhibiting spore germination” (WISCONSIN ALUMNI RESEARCH FOUNDATION, priority 2018, dated 2024).
Values after ≈ are worked out from the molar mass of the structure shown. Structures can show the parent of a compound that is named as a salt. Where two headings read alike, the source gives them in different places.

Legend:
[1] = test system: Cryptococcus neoformans spores (JEC20 x JEC21); experiment: Quantitative germination assay (microfluidic devices, cell size and shape); format: cell-based; details: for Inhibition of spore germination: 16 hours; for Germicidal: plated on YPD after the 16-hour experiment; for Inhibition of spore germination, antifungal drugs: concentration not given, bifonazole and econazole nitrate tested outside the microfluidic device, imaged at 0 and 16 hours; for Spore escape from inhibition (words): yeast population increase = escape
Experimental: All germination assays are based on Barkal et al., 2016. Briefly, microfluidic devices were loaded with 1×10^5 spores, and at 0 hours, SD media with drug of interest, were added to the sample. Spores were allowed to germinated at 30° C. in a humidified chamber and cells were monitored every two (2) hours for 16 hours. Each assay was performed in two (2) individual wells with three (3) field of views acquired from each well. All images were analyzed as previously described based on cell shape and size. Population ratio of spores, intermediate, and yeast cells were determined. Error bars in plots are based on variation between all fields of view acquired. […] After the 16-hour experiment, samples were plated on YPD and allowed to grow at 30° C. to determine if drugs were completely germicidal or not based on lack of growth. If assays were unable to be performed in microfluidic devices, the […] spores were incubated in identical conditions outside of PDMS devices and only loaded into devices for image acquisition.

[2] = test system: Cryptococcus neoformans (H99); experiment: MIC/MFC experiments (EUCAST based), H99; format: cell-based; details: 48 h; for MFC: Cryptococcus neoformans
Experimental: (§1) All minimum inhibitory concentration (MIC) experiments were based on EUCAST methodology. […] After 6-hour incubation, yeast cells were washed in 1×PBS and quantified using a hemocytometer. […] Cryptococcus neoformans cells were incubated for 2 days at 30° C. while Candida albicans strains were incubated for 2 days at 35° C. OD600 readings were used to assess the MIC values for each drug. To determine minimum fungicidal concentrations (MFC) values, 3 μL per well were plated on YPD and allowed to grow for 2 days.

[3] = test system: Cryptococcus neoformans (JEC21); experiment: MIC/MFC experiments (EUCAST based), JEC21; format: cell-based; details: 48 h; for MFC: Cryptococcus neoformans
Experimental: as §1

[4] = test system: Aspergillus Fumigatus (AF293); experiment: Aspergillus fumigatus MIC on conidia; format: cell-based; details: for MIC: Aspergillus fumigatus; for Ability to inhibit Aspergillus fumigatus: testing performed on conidia
Experimental: Conidia at a final concentration of 2×10^4 cells were incubated in RPMI, 0.33 M MOPS, and 2% glucose at pH 7 at varying concentrations of inhibitors, with a final volume of 200 μL.

[5] = test system: Cryptococcus neoformans yeast replication; format: cell-based; details: signal relative to negative control
Excerpt: (§2) To identify inhibitors of Cryptococcus neoformans spore germination, a high throughput screen was developed that utilizes a nanoluciferase construct to monitor whether spores germinate in the presence of inhibitor. Briefly a protein luciferase construct was created resulting in a low luciferase signal for non-germinated spores and a high signal from germinated and replicating cells. The screen was coupled with OD600 readings to monitor the ability of compounds to inhibit yeast replication. The examples focused on FDA-approved drugs, as these drugs have the potential of being repurposed into antifungal therapeutics. To determine whether any FDA-approved drugs were able to inhibit Cryptococcus neoformans spore germination and yeast replication, the aforementioned high throughput screen was performed on the L1300 Selleck FDA-Approved Drug Library containing an array of 1108 compounds. This library of compounds is available commercially from Selleck Chemicals, 14408 W Sylvanfield Drive, Houston, Tex. 77014, USA.
(§3) The screening was successful at identifying known antifungal drugs as inhibitors of yeast replication as indicated by an OD600 signal of less than 75% of the negative control (Table 2). For the purpose of these examples, antifungal drugs were defined as any FDA-approved drug used in the treatment of fungal infections. Of these 23 known antifungal drugs, only six (6) were identified as inhibitors of spore germination, indicated by a luciferase signal of less than 30% of the negative control.

[6] = test system: Candida albicans (SC5314); experiment: MIC/MFC experiments (EUCAST based), Candida albicans; format: cell-based; details: SC5314, 48 h
Experimental: as §1

[7] = test system: Cryptococcus neoformans spore germination; experiment: High throughput nanoluciferase screen of spore germination (L1300 Selleck FDA-Approved Drug Library); format: cell-based; details: signal relative to negative control
Excerpt: as §2, §3

[8] = test system: JEC20-GFPxJEC21-GFP spores in mouse lung; experiment: In vivo germination (cells recovered from mouse lungs 8 hours post infection); set-up: species or system Cryptococcus neoformans; details: prophylactic 4 mg/kg/day for three days; cells recovered 8 hours post infection
Experimental: Female mice, 8- to 10-week-old C57BL/6J (Jackson Laboratory) female mice (3 mice per group) were used. Mice were dosed with either 4mg/kg/day or 1×PBS (50 μL) for three (3) consecutive days. Mice were intranasally infected with 2×10^6 JEC20-GFPxJEC21-GFP spores, strains described in Walsh et al., 2018. After 8 hours post-infection, mice were sacked and lavaged with 0.05% TirtonX in 1×PBS. Lavage suspension underwent a series of treatments and washes, in order: red blood cell lysis (ACK lysing buffer, 2 mL, 5 minutes), formaldehyde fixation (4%, 500 μL, 30 minutes) and calcofluor white staining (25 μg/mL, 20 μL for 1 minute). Cells (50-100 per mouse) were imaged, and identified as Cryptococcus neoformans cells based on green fluorescent signal or cyan staining from calcofluor staining. Cells surface area and aspect ratio were measured in ImageJ and cells were classified as spores, intermediates, or yeast based on size and shapes parameters used in the quantitative germination assay.
In vivo spore germination has never been characterized mainly due to technical hurdles. Using a novel assay, Cryptococcus neoformans cells were recovered from prophylactically treated, spore-infected mouse lungs 8 hours post infection. […] Based on size and shape of the cells, the level of in vivo spore germination was quantified.

[9] = test system: JEC20×JEC21 yeast or spores in mouse lung; experiment: Fungal burden animal studies (mouse lung colony-forming units); format: in vivo, Cryptococcus neoformans; details: for Lung fungal burden (colony-forming units) versus PBS-treated mice: 4 mg/kg/day intranasal for three days from 1-day post-infection, lungs day 4
Experimental: All yeast cells were cultured overnight in YPD, washed and diluted to 5×10^6 cells. For JEC20 and JEC21, 2.5×10^6 cells of each were combined. Spores were cultured as previously described and diluted to 2×10^6 cells. All experiments were performed on 8- to 10-week old C57BL/6J (Jackson Laboratory, Bar Harbor, Me., USA) female mice (5 mice per group). All mice were infected intranasally with a total of 50 μL. All dosing was performed with 4 mg/kg/day or 1×PBS for three (3) days either prior to infection or 1-day post-infection. Mice were sacked day-4 post-infection and lungs were collected, processed, and fungal burden was assessed.
Pentamidine is a successful inhibitor of Cryptococcus neoformans yeast replication in vitro. For repurposing potential, it is important to determine drug efficacy in vivo. For this purpose, the ability of pentamidine to lower the fungal burden in mouse lungs infected by both spores and yeast was determined. One-day post-infection intranasal dosing was begun at 4 mg/kg/day and the mice were treated for three consecutive days. On the fourth day post-infection, lungs were collected and fungal burden was determined. […] See FIG. 8A and FIG. 8B, respectively.
Pentamidine is a successful inhibitor of spore germination in vitro. It is important, though, to determine drug efficacy in vivo. Therefore, the ability of pentamidine to inhibit germination of spores in mouse lungs was determined. […], mice were infected with JEC20×JEC21 spores and 4-days post infection, mouse lungs were collected and lung fungal burden was determined.

[10] = Table 5, yeast, 2 days at 30° C., OD600, read-out: MIC
[11] = Table 5, plated on YPD, 2 days, read-out: MFC
[12] = Table 5, conidia, lowest concentration with complete absence of germ tubes or hyphae, read-out: MIC
[13] = Table 3, other FDA-approved drugs
[14] = Table 5, 2 days at 35° C., OD600, read-out: MIC
[15] = Table 4, yeast, 2 days at 30° C., OD600, read-out: MIC
[16] = Table 4, plated on YPD, 2 days, read-out: MFC
[17] = Table 4, conidia, lowest concentration with complete absence of germ tubes or hyphae, read-out: MIC
[18] = Table 2, antifungal drugs, less than 75% = inhibitor of yeast replication
[19] = Table 4, 2 days at 35° C., OD600, read-out: MIC
[20] = Table 2, antifungal drugs, less than 30% = inhibitor of germination

SMILES	Inhibition of spore germination ([1]; 25 μg/mL)	Germicidal ([1]; 25 μg/mL)	MIC [2, 10]	MFC [2, 11]	MIC [3, 10]	MFC [3, 11]	MIC [4, 12]	Ability to inhibit Aspergillus fumigatus [4]	Replication Percent OD600 [5, 13]	MIC [6, 14]	MFC [6, 11]	Germination Percent Luciferase Signal [7, 13]	other results
CCCCC(CC)CNC(=N)NC(=N)NCCCCCCNC(=N)NC(=N)NCC(CC)CCCC (stereo not shown) [Alexidine HCl]	completely inhibit spore germination	fully germicidal	< 0.78 µg/mL	< 0.78 µg/mL	< 0.78 µg/mL	< 0.78 µg/mL	< 0.78 µg/mL	extremely potent	29.6%	< 0.78 µg/mL	< 0.78 µg/mL	4.6%	
c1ccc(-c2ccc(C(c3ccccc3)n3ccnc3)cc2)cc1 (stereo not shown) [Bifonazole]								unable to inhibit					Inhibition of spore germination, antifungal drugs [1]: able to inhibit spore germination effectively; Spore escape from inhibition (words) [1]: spore escape apparent; MIC [2, 15]: 6.25 µg/mL (≈ 20.1 µM); MFC [2, 16]: > 100 µg/mL; MIC [3, 15]: 6.25 µg/mL (≈ 20.1 µM); MFC [3, 16]: 6.25 µg/mL (≈ 20.1 µM); MIC [4, 17]: > 100 µg/mL; Replication Percent OD600 [5, 18]: 33.4%; MIC [6, 19]: > 100 µg/mL; MFC [6, 16]: > 100 µg/mL; Germination Percent Luciferase Signal [7, 20]: 13.6%
CCN(CC)C(=S)SSC(=S)N(CC)CC [Disulfiram]									65.6%			22.7%	Stall in germination overall ([1]; 25 μg/mL): ~2 h; MIC [2]: 6.25 µg/mL (≈ 21.1 µM); MFC [2]: 6.25 µg/mL (≈ 21.1 µM); MIC [3]: 3.13 µg/mL (≈ 10.6 µM); MFC [3]: 3.13 µg/mL (≈ 10.6 µM); MIC [4]: 25 µg/mL (≈ 84.3 µM); MFC [6]: 12.5 µg/mL (≈ 42.2 µM); MIC [6]: 6.25 µg/mL (≈ 21.1 µM)
Clc1ccc(COC(Cn2ccnc2)c2ccc(Cl)cc2Cl)cc1 (stereo not shown) [Econazole nitrate]								able to inhibit its growth					Inhibition of spore germination, antifungal drugs [1]: able to inhibit spore germination effectively; MIC [2, 15]: < 0.78 µg/mL; MFC [2, 16]: 6.25 µg/mL; MIC [3, 15]: < 0.78 µg/mL; MFC [3, 16]: 6.25 µg/mL; MIC [4, 17]: 3.13 µg/mL; Replication Percent OD600 [5, 18]: 33.1%; MIC [6, 19]: 6.25 µg/mL; MFC [6, 16]: 12.5 µg/mL; Germination Percent Luciferase Signal [7, 20]: 16.1%
O=C(Nc1ccc([N+](=O)[O-])cc1Cl)c1cc(Cl)ccc1O [Niclosamide]	completely inhibit germination	not fully germicidal	1.56 µg/mL (≈ 4.77 µM)	> 100 µg/mL	< 0.78 µg/mL	1.56 µg/mL (≈ 4.77 µM)	> 100 µg/mL		43.4%	> 100 µg/mL	> 100 µg/mL	7.8%	
CCCCCCCCOc1ccccc1C(=O)Nc1ccc(C(=O)OCC[N+](C)(CC)CC)cc1 [Otilonium bromide]	completely inhibit spore germination	fully germicidal	3.13 µg/mL	3.13 µg/mL	3.13 µg/mL	3.13 µg/mL	6.25 µg/mL	able to inhibit A. fumigatus	29.0%	3.13 µg/mL	3.13 µg/mL	6.9%	
N=C(N)c1ccc(OCCCCCOc2ccc(C(=N)N)cc2)cc1 [Pentamidine]								unable to inhibit					Germicidal activity ([1]; 50 μg/mL): showed germicidal activity; Spore germination over a range of concentrations ([1]; as concentrations increased): spore germination became slower; Germicidal activity ([1]; lower concentration): not germicidal; Spore escape from inhibition (words) ([1]; listed as pentamidine): no individual spores were able to escape inhibition; Level of in vivo spore germination (spore, intermediate, yeast percent) [8]: higher spore percent and a lower yeast percent; Lung fungal burden after prophylaxis versus 1×PBS ([9]; 4 mg/kg/day for three consecutive days prior to infection with JEC20×JEC21 spores, lungs 4-days post infection, FIG. 9, p<0.01): successful in decreasing spore-mediated lung burden; Lung fungal burden (colony-forming units) versus PBS-treated mice ([9]; spore-infected C57BL/6J mice, FIG. 8B, p<0.01): significantly lower fungal burdens in the lung; Lung fungal burden (colony-forming units) versus PBS-treated mice ([9]; yeast-infected C57BL/6J mice, FIG. 8A, p<0.05): significantly lower fungal burdens in the lung
CO[C@H]1C[C@@H]2CC[C@@H](C)[C@@](O)(O2)C(=O)C(=O)N2CCCC[C@H]2C(=O)O[C@H]([C@H](C)C[C@@H]2CC[C@@H](OC(=O)C(C)(CO)CO)[C@H](OC)C2)CC(=O)[C@H](C)/C=C(\C)[C@@H](O)[C@@H](OC)C(=O)[C@H](C)C[C@H](C)/C=C/C=C/C=C/1C [Temsirolimus]	partially inhibit germination	Neither temsirolimus nor disulfiram were germicidal	6.25 µg/mL (≈ 6.07 µM)	6.25 µg/mL (≈ 6.07 µM)	6.25 µg/mL (≈ 6.07 µM)	6.25 µg/mL (≈ 6.07 µM)	> 100 µg/mL		59.2%	1.56 µg/mL (≈ 1.51 µM)	1.56 µg/mL (≈ 1.51 µM)	21.3%	
